In US11040981B2, “Pyrrolotriazine compounds and methods of inhibiting TAM kinases” (Syros Pharmaceuticals, Inc., priority 2017, dated 2021) one finds IC50 data, which are given here for 33 compounds.

One test deals with T1, TYRO3 (Homo sapiens, UniProt Q06418).
T1 sequence (Q06418 41-890): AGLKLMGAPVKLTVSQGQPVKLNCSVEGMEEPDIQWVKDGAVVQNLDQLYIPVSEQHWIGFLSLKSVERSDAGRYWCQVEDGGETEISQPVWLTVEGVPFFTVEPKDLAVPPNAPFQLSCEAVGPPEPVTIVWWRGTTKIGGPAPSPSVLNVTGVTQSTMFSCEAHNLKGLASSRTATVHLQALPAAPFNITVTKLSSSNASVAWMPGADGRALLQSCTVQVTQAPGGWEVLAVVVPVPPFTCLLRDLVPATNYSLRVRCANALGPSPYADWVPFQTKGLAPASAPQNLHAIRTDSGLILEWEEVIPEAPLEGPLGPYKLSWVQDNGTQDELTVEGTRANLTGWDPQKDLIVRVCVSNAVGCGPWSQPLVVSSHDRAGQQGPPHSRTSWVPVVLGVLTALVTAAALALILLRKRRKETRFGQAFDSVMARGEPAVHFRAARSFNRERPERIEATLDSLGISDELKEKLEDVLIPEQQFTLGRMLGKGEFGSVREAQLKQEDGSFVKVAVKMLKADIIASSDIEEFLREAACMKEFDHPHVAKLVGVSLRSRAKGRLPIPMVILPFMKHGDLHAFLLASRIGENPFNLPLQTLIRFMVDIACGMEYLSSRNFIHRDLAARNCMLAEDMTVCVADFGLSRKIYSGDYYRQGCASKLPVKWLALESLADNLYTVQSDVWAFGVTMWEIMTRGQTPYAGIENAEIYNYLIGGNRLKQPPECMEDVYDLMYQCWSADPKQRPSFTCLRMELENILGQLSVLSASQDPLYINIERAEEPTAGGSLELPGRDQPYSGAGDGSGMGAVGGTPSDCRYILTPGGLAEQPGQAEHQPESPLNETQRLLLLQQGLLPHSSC
Description: TR-FRET kinase activity assay, TYRO3. The settings on record: ATP at Km, 60 minutes. It counts as biochemical. The method, boiled down: (§1)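 Compounds were tested against each kinase with ATP set at its own Km and a labelled tyrosine peptide substrate. Following one hour at room temperature in buffer containing 10 mM MgCl2 and 1 mM DTT, phosphorylated product was detected by Europium antibody TR-FRET after EDTA quench, and IC50 values were calculated.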
(In general: TR-FRET usually uses a lanthanide donor and a delayed reading to cut background.)

For another test, the target named is T2, AXL (Homo sapiens, UniProt P30530).
T2 sequence (P30530 26-894): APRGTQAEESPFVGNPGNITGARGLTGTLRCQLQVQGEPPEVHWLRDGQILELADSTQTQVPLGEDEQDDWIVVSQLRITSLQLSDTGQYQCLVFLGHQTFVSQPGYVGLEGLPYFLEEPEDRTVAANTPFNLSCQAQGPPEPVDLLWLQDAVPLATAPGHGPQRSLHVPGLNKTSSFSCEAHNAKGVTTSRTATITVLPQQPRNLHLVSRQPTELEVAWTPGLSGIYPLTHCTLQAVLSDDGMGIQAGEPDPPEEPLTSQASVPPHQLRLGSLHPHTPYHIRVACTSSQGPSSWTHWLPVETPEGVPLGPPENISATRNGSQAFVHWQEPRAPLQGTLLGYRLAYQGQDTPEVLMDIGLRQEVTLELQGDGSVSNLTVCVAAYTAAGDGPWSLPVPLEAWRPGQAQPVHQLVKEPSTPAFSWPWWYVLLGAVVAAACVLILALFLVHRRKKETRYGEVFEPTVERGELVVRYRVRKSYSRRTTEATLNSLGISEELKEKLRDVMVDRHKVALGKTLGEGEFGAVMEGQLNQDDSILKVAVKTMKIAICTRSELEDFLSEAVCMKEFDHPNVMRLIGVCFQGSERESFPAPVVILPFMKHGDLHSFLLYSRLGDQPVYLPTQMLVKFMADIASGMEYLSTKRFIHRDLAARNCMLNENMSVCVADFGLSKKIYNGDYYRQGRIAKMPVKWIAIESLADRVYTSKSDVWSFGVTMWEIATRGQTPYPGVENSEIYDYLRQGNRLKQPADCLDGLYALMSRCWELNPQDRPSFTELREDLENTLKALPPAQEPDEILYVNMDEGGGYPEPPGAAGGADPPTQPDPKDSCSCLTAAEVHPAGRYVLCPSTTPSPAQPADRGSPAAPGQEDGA
Description: TR-FRET kinase activity assay, AXL. As to conditions: ATP at Km, 60 minutes. Format: biochemical. The method, boiled down:
as §1

Each structure is given as a SMILES string.

One may read the IC50 as the concentration that inhibits the measured activity by half. A lower IC50 goes with greater potency. In the case of `COCC(C)Nc1ncc2c(-c3ccc(C(C)N4CCOCC4)cc3)cc(C3CCC(O)CC3)n2n1` (stereo not drawn) [Compound 181], the IC50 was no more than 100 nM on TYRO3 and 100 to 1000 nM at AXL.

Consider `COC[C@H](C)Nc1ncc2c(-c3ccc(C4(C(=O)N5CCOCC5)CC4)cc3)cc([C@H]3CC[C@H](O)CC3)n2n1` [Compound 171], for which the IC50 against TYRO3 and against AXL was no more than 100 nM each time.

`COC[C@H](C)Nc1ncc2c(-c3ccnc(N4CCC(C)(O)CC4)c3)cc([C@H]3CC[C@H](O)CC3)n2n1` [Compound 605]: the IC50 on TYRO3 and against AXL was no more than 100 nM each time.

For `CC[C@]1(O)CC[C@@H](c2cc(-c3cnn(C4COC4)c3)c3cnc(N[C@@H](C)COC)nn32)CC1` [Compound 616], the IC50 on TYRO3 and on AXL was no more than 100 nM throughout.

For `COC[C@H](C)Nc1ncc2c(-c3cnn(C(C)(C)C(=O)N4CCC(C)(O)C4)c3)cc([C@H]3CC[C@H](O)CC3)n2n1` (stereo partly drawn) [Compound 620], the IC50 against TYRO3 and at AXL was no more than 100 nM in each case.

For `COCC(C)Nc1ncc2c(-c3ccc(C(C)(C)c4nnc(C)o4)s3)cc(C3CCC(O)CC3)n2n1` (stereo not drawn) [Compound 611], the IC50 at TYRO3 and on AXL was no more than 100 nM throughout.

For the compound `COC[C@H](C)Nc1ncc2c(-c3ccc(C#N)c(F)c3)cc([C@H]3CC[C@H](O)CC3)n2n1` [Compound 169], the IC50 on TYRO3 and against AXL was no more than 100 nM throughout.

As to `COC[C@H](C)Nc1ncc2c(-c3ccc(C(=O)N4CCN(C)CC4)cc3)cc([C@H]3CC[C@H](O)CC3)n2n1` [Compound 144], the IC50 on TYRO3 and against AXL was no more than 100 nM in each case.

On to `[2H]C([2H])([2H])OCC(C)Nc1ncc2c(-c3cnn(C4COC4)c3)cc(C3CCC(O)CC3)n2n1` (stereo not drawn) [Compound 630], for which the 50% inhibitory concentration (IC50) at TYRO3 and at AXL was no more than 100 nM in each case.

For the compound `COC[C@H](C)Nc1ncc2c(-c3cnn(C(C)(C)C(=O)N4CCCC4)c3)cc([C@H]3CC[C@H](O)CC3)n2n1` [Compound 612], the IC50 against TYRO3 and against AXL was no more than 100 nM in each case.

As to `COC[C@H](C)Nc1ncc2c([C@H]3CC[C@H](C(=O)N4CCN(C)CC4)CC3)cc([C@H]3CC[C@H](O)CC3)n2n1` [Compound 606], the IC50 against TYRO3 and on AXL was no more than 100 nM throughout.

Take `COC[C@H](C)Nc1ncc2c(-c3cnn(C)c3)cc([C@H]3CC[C@H](O)CC3)n2n1` [Compound 152]: the IC50 against TYRO3 and against AXL was no more than 100 nM throughout.

Turning to `COC[C@H](C)Nc1ncc2c(-c3ccc(CN4CCN(c5nccc(C)n5)CC4)cc3)cc([C@H]3CC[C@H](O)CC3)n2n1` [Compound 154, (trans)-4-(2-(((S)-1-methoxypropan-2-yl)amino)-5-(4-((4-(4-methylpyrimidin-2-yl)piperazin-1-yl)methyl)phenyl)pyrrolo[2,1-f][1,2,4]triazin-7-yl)cyclohexanol], the IC50 at TYRO3 and against AXL was no more than 100 nM throughout.

With `COC[C@H](C)Nc1ncc2c(-c3cnn(C(C)(C)C(=O)N4CCCC(C)(O)C4)c3)cc([C@H]3CC[C@H](O)CC3)n2n1` (stereo partly drawn) [Compound 621], the IC50 on TYRO3 and on AXL was no more than 100 nM each time.

Regarding `COC[C@H](C)Nc1ncc2c(-c3cnn(C(C)(C)c4nnco4)c3)cc([C@H]3CC[C@H](O)CC3)n2n1` [Compound 604], the IC50 against TYRO3 and on AXL was no more than 100 nM throughout.

Turning to `COC[C@H](C)Nc1ncc2c(-c3ccnc(C)c3)cc([C@H]3CC[C@@H](O)CC3)n2n1` [Compound 183], the IC50 is no more than 100 nM at TYRO3 and 100 to 1000 nM against AXL.

With `COCC(C)Nc1ncc2c(-c3ccc(C(C)N4CCOCC4)cc3)cc(C3CCC(O)CC3)n2n1` (mixture of isomers) [Compound 180], the results for the IC50 on TYRO3 and against AXL were no more than 100 nM and 100 to 1000 nM, respectively.

As for `COC[C@H](C)Nc1ncc2c(-c3cnn(C4COC4)c3)cc([C@H]3CC[C@H](O)C(F)(F)C3)n2n1` [Compound 614], the IC50 on TYRO3 and on AXL was no more than 100 nM throughout.

Take `COC[C@H](C)Nc1ncc2c(-c3ccc(C4(C(=O)O)CC4)cc3)cc([C@H]3CC[C@H](O)CC3)n2n1` [Compound 173]: the IC50 against TYRO3 and against AXL was no more than 100 nM each time.

Turning to `COCC(C)Nc1ncc2c(-c3ccc(C(C)N4CCCC4)cc3)cc(C3CCC(O)CC3)n2n1` (stereo not drawn) [Compound 164], the IC50 against TYRO3 and at AXL was no more than 100 nM in each case.

For `COC[C@H](C)Nc1ncc2c(-c3cnn(C(C)(C)c4nnc(C(F)(F)F)o4)c3)cc([C@H]3CC[C@H](O)CC3)n2n1` [Compound 603], the IC50 against TYRO3 and against AXL was no more than 100 nM throughout.

`COC[C@H](C)Nc1ncc2c(-c3cnn(C(C)(C)C(=O)N4CC(C)(O)C4)c3)cc([C@H]3CC[C@H](O)CC3)n2n1` [Compound 622]: the IC50 against TYRO3 and against AXL was no more than 100 nM throughout.

In the case of `CCCCC[C@H](C)Nc1ncc2c(-c3ccc(S(=O)(=O)N4CCOCC4)cc3)cc([C@H]3CC[C@H](O)CC3)n2n1` [Compound 102, (1S,4r)-4-(2-((S)-heptan-2-ylamino)-5-(4-(morpholinosulfonyl)phenyl)pyrrolo[2,1-f][1,2,4]triazin-7-yl)cyclohexanol], the IC50 was no more than 100 nM against TYRO3 and 100 to 1000 nM against AXL.

Take `C[C@@H](CC(F)(F)F)Nc1ncc2c(-c3cnn(C(C)(C)C(=O)C4COC4)c3)cc([C@H]3CC[C@](C)(O)CC3)n2n1` [Compound 610]: the IC50 against TYRO3 and at AXL was no more than 100 nM each time.

On to `COC[C@H](C)Nc1ncc2c(-c3ccnc(N4CC(C)(O)C4)c3)cc(C3CCC(O)CC3)n2n1` (stereo partly drawn) [Compound 632], for which the IC50 at TYRO3 and at AXL was no more than 100 nM each time.

Take `COC[C@H](C)Nc1ncc2c(-c3cnn(C(C)(C)c4nnc([C@H]5CCCO5)o4)c3)cc([C@H]3CC[C@H](O)CC3)n2n1` [Compound 602]: the IC50 on TYRO3 and against AXL was no more than 100 nM each time.

Consider `COC[C@H](C)Nc1ncc2c(C3=CC4CCC(C3)N4)cc([C@H]3CC[C@H](O)CC3)n2n1` (stereo partly drawn) [Compound 170], for which the IC50 on TYRO3 and on AXL was no more than 100 nM throughout.

With `COC[C@H](C)Nc1ncc2c(N3CCCC3=O)cc([C@H]3CC[C@H](O)CC3)n2n1` [Compound 177], the results for the IC50 against TYRO3 and against AXL were 100 to 1000 nM and 1000 to 10000 nM, respectively.

On to `COC[C@H](C)Nc1ncc2c(-c3ccc(CN4CCN(C)CC4)cc3)cc([C@H]3CC[C@@H](O)CC3)n2n1` [Compound 155], for which the IC50 against TYRO3 and against AXL was no more than 100 nM throughout.

For `C[C@@H](COC(F)F)Nc1ncc2c(-c3cnn(C(C)(C)C(=O)N4CC5(COC5)C4)c3)cc([C@H]3CC[C@H](O)CC3)n2n1` [Compound 613], the IC50 on TYRO3 and against AXL was no more than 100 nM each time.

On to `CC(CC#N)Nc1ncc2c(-c3ccc(CN4CCN(C)CC4)cc3)cc(C3CCC(O)CC3)n2n1` (stereo not drawn) [Compound 145], for which the IC50 at TYRO3 and on AXL was no more than 100 nM in each case.

On to `COC[C@H](C)Nc1ncc2c(-c3cnn(CC(=O)N4CCOCC4)c3)cc([C@H]3CC[C@H](O)CC3)n2n1` [Compound 162], for which the IC50 on TYRO3 and against AXL was no more than 100 nM throughout.

For the compound `COC[C@H](C)Nc1ncc2c(-c3ccnc(C(C)(C)O)c3)cc([C@H]3CC[C@H](O)CC3)n2n1` [Compound 619], the IC50 at TYRO3 and on AXL was no more than 100 nM throughout.
